These results are taken from patent US8338450B2, “Compounds as dipeptidyl peptidase IV (DPP IV) inhibitors” (Lupin Limited, priority 2007, dated 2012).

Where a name gives a salt, the structure may show the parent alone.

For the first test, the target named is T1, human recombinant DPP-IV (Homo sapiens, UniProt P27487).
T1 construct: purchased R&D Systems, USA (or produced in-house)
T1 sequence (P27487 whole entry): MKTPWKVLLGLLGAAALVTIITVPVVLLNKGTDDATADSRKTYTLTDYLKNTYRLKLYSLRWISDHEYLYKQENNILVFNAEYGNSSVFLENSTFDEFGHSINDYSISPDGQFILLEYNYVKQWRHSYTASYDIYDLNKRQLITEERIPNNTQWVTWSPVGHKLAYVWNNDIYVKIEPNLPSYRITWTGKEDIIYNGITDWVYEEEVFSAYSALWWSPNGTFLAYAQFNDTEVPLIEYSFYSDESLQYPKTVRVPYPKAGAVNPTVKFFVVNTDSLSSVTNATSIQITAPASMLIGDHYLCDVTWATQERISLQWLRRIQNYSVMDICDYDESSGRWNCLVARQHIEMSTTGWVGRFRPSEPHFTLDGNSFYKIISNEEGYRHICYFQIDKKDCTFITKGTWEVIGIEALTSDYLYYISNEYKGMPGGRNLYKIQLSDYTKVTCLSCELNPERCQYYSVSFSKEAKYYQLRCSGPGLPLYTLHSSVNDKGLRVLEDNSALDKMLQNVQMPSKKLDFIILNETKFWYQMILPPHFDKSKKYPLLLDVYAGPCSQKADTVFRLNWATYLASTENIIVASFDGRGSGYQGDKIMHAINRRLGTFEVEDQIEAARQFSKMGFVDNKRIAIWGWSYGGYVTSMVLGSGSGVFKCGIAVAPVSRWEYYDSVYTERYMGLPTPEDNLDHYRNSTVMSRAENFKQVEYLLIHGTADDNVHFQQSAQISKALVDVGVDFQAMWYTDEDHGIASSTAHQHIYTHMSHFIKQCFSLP
As to the kind of experiment: Inhibition of human recombinant DPP-IV (Gly-Pro-AMC hydrolysis, fluorometric). The class given is biochemical. The note with it: compound 10 nM; relative to vehicle controls. How it is done:
Inhibition of Human Recombinant DPP-IV
The proteolytic activity of human recombinant DPP-IV was determined by following the hydrolysis of Gly-Pro-7-amino-4-methylcoumarin (Gly-Pro-AMC) and the fluorometric quantitation of the liberated AMC. Assays were routinely carried out in 96-well flat-bottom black microwell plates. The reaction mixture (100 μl) contained 10 ng of human recombinant DPP-IV enzyme (produced in-house or procured from R&D Systems, USA) in the assay buffer (25 mM Tris-HCl, pH 7.4, 140 mM NaCl, 10 mM KCl and 0.1 mg/ml BSA) and 50 μM Gly-Pro-AMC. After incubation of assay plates at 30° C. for 30 min, the hydrolysis of Gly-Pro-AMC was monitored in a fluorescence microplate reader (Molecular Devices SpectraMax M5), with excitation and emission wavelengths set at 360 nm and 460 nm, respectively.
The inhibition of DPP-IV activity by test compounds was routinely performed by preincubating the enzyme with test compound (10 and 100 nM for primary screening and 8 concentrations from 0.1 to 1000 nM for the dose-response study) or vehicle (0.01% DMSO) for 15 min at 30° C., in a total volume of 90 μl. Test compounds were dissolved in DMSO at a concentration of 10 mM and serially diluted further in assay buffer. The enzyme reaction was initiated by the addition of Gly-Pro-AMC, followed by incubation of assay plates for 30 min at 30° C. and the liberated AMC was measured as described above. A known inhibitor of DPP-IV (positive control) was always included in the assay. Test compounds at various concentrations were always evaluated in duplicate, along with substrate blanks, vehicle controls and positive controls.
The results are expressed as percent inhibition of the enzyme activity relative to vehicle controls. Dose-response studies were conducted for those compounds exerting ≧50% inhibition of activity at 10 nM in primary screening. IC50, defined as the inhibitor concentration which caused a 50% decrease of the activity under assay conditions, was computed using GraphPad Prism software, version 5.0.
The DPP-IV inhibition data (expressed either as IC50 in nanomolar or percent inhibition at a particular compound concentration) is presented in Table 1.
Regarding `N#Cc1ccc(N2C3CCC2CC([C@H](N)C(=O)N2[C@H](C#N)C[C@@H]4C[C@@H]42)C3)cc1.O=C(O)C(F)(F)F` (stereo partly drawn) [Compound 52, (1S,3S,5S)-2-{(2S)-2-Amino-2-[8-(4-cyano-phenyl)-8-aza-bicyclo[3.2.1]oct-3-yl]-exo-ethanoyl}-2-azabicyclo[3.1.0]hexane-3-carbonitrile trifluoro acetic acid salt], the “% inhibition at 10 nM” value is 25% inhibition at 10 nM.

`CCC(CC)N1C2CCC1CC([C@H](N)C(=O)N1[C@H](C#N)C[C@@H]3C[C@@H]31)C2.O=C(O)C(F)(F)F` (stereo partly drawn) [Compound 59, (1S,3S,5S)-2-{(2S)-2-Amino-2-[8-(1-ethyl-propyl)-8-aza-bicyclo[3.2.1]oct-3-yl]-exo-ethanoyl}-2-azabicyclo[3.1.0]hexane-3-carbonitrile trifluoroacetic acid salt]: the “% inhibition at 10 nM” value is 34% inhibition at 10 nM.

Take `COc1ccccc1NC(=S)N1C2CCC1CC([C@H](N)C(=O)N1[C@H](C#N)C[C@@H]3C[C@@H]31)C2.O=C(O)C(F)(F)F` (stereo partly drawn) [Compound 68, (1S,3S,5S)-2-{(2S)-2-Amino-2-[8-(2-methoxyphenylthiocarbamoyl)-8-aza-bicyclo[3.2.1]oct-3-yl]-exo-ethanoyl}-2-azabicyclo[3.1.0]-hexane-3-carbonitrile trifluoroacetic acid salt]: the “% inhibition at 10 nM” value is 16% inhibition at 10 nM.

On to `N#C[C@@H]1C[C@@H]2C[C@@H]2N1C(=O)[C@H](N)C1CC2CCC(C1)N2C(=O)c1cnccn1.O=C(O)C(F)(F)F` (stereo partly drawn) [Compound 36, (1S,3S,5S)-2-{(2R)-2-Amino-2-[8-(pyrazine-2-carbonyl)-8-aza-bicyclo[3.2.1]oct-3-yl]-exo-ethanoyl}-2-azabicyclo[3.1.0]hexane-3-carbonitrile trifluoroacetic acid salt], for which the “% inhibition at 10 nM” value is listed as 17% inhibition at 10 nM.

Take `N#C[C@H]1C[C@H]2C[C@H]2N1C(=O)[C@H](N)C1CC2CCC(C1)N2C(=O)c1ccnc(F)c1.O=C(O)C(F)(F)F` (stereo partly drawn) [Compound 30, (1R,3R,5R)-2-{(2R)-2-Amino-2-[8-(2-fluoropyridine-4-carbonyl)-8-aza-bicyclo[3.2.1]oct-3-yl]-exo-ethanoyl}-2-azabicyclo[3.1.0]hexane-3-carbonitrile trifluoroacetic acid salt]: the “% inhibition at 10 nM” value came to 0% inhibition at 10 nM.

The test is the same for the next values; noted with them: compound 100 nM; relative to vehicle controls.
In the case of `N#C[C@@H]1C[C@@H]2C[C@@H]2N1C(=O)[C@@H](N)C1CC2CCC(C1)N2CC12CC3CC(CC(C3)C1)C2.O=C(O)C(F)(F)F` (stereo partly drawn) [Compound 49, (1S,3S,5S)-2-{(2S)-2-Amino-2-[8-(adamantan-1-ylmethyl)-8-aza-bicyclo[3.2.1]oct-3-yl]-exo-ethanoyl}-2-azabicyclo[3.1.0]hexane-3-carbonitrile trifluoroacetic acid salt], the “% inhibition at 100 nM” value turned out to be 60% inhibition at 100 nM.

As for `N#C[C@@H]1C[C@@H]2C[C@@H]2N1C(=O)[C@@H](N)C1CC2CCC(C1)N2C(=O)C12CC3CC(CC(C3)C1)C2.O=C(O)C(F)(F)F` (stereo partly drawn) [Compound 43, (1S,3S,5S)-2-{(2S)-2-Amino-2-[8-(adamantane-1-carbonyl)-8-aza-bicyclo[3.2.1]oct-3-yl]-exo-ethanoyl}-2-azabicyclo[3.1.0]hexane-3-carbonitrile trifluoroacetic acid salt], the “% inhibition at 100 nM” value is 49% inhibition at 100 nM.

Staying with this test, now noted: human recombinant DPP-IV, 50 μM Gly-Pro-AMC, 30 min at 30° C.
As for `N#C[C@@H]1C[C@@H]2C[C@@H]2N1C(=O)[C@@H](N)C1CC2CCC(C1)N2C(=O)Cc1ccncc1` (stereo partly drawn) [Compound 54, (1S,3S,5S)-2-{(2S)-2-Amino-2-[8-(2-pyridin-4-yl-acetyl)-8-aza-bicyclo[3.2.1]oct-3-yl]-exo-ethanoyl}-2-azabicyclo[3.1.0]hexane-3-carbonitrile di trifluoroacetic acid salt], the IC50 was 3.3 nM.

Regarding `N#C[C@@H]1C[C@@H]2C[C@@H]2N1C(=O)[C@@H](N)C1CC2CCC(C1)N2C(=O)c1cc(F)ccc1F` (stereo partly drawn) [Compound 27, (1S,3S,5S)-2-{(2S)-2-Amino-2-[8-(2,5-difluorobenzoyl)-8-aza-bicyclo[3.2.1]oct-3-yl]-exo-ethanoyl}-2-azabicyclo[3.1.0]hexane-3-carbonitrile trifluoroacetic acid salt], the IC50 was 17.2 nM.

Consider `N#C[C@H]1CSCN1C(=O)[C@@H](N)C1CC2CCC(C1)N2C(=O)c1ccc(C(F)(F)F)cc1` (stereo partly drawn) [Compound 20, (4S)-3-{(2S)-2-Amino-2-[8-(4-trifluoromethyl-benzoyl)-8-aza-bicyclo[3.2.1]oct-3-yl]-exo-ethanoyl}-thiazolidin-4-carbonitrile trifluoroacetetic acid salt], for which the IC50 was 2.8 nM.

For the compound `N#C[C@@H]1C[C@H](F)CN1C(=O)[C@@H](N)C1CC2CCC(C1)N2C(=O)c1cc(F)c(F)cc1F` (stereo partly drawn) [Compound 16, (2S,4S)-1-{(2S)-2-Amino-2-[8-(2,4,5-trifluorobenzoyl)-8-aza-bicyclo[3.2.1]oct-3-yl]-exo-ethanoyl}-4-fluoro-pyrrolidin-2-carbonitrile trifluoroacetic acid salt], the IC50 stood at 2.9 nM.

Regarding `CS(=O)(=O)c1ccc(N2C3CCC2CC([C@H](N)C(=O)N2[C@H](C#N)C[C@@H]4C[C@@H]42)C3)cc1` (stereo partly drawn) [Compound 53, (1S,3S,5S)-2-{(2S)-2-Amino-2-[8-(4-methanesulfonylphenyl)-8-aza-bicyclo[3.2.1]oct-3-yl]-exo-ethanoyl}-2-azabicyclo[3.1.0]hexane-3-carbonitrile trifluoroacetic acid salt], the IC50 came to 19.7 nM.

In the case of `N#Cc1ccc(C(=O)N2C3CCC2CC([C@H](N)C(=O)N2[C@H](C#N)C[C@@H]4C[C@@H]42)C3)cc1` (stereo partly drawn) [Compound 24, (1S,3S,5S)-2-{(2S)-2-Amino-2-[8-(4-cyanobenzoyl)-8-aza-bicyclo[3.2.1]oct-3-yl]-exo-ethanoyl}-2-azabicyclo[3.1.0]hexane-3-carbonitrile trifluoroacetic acid salt], the IC50 stood at 3.52 nM.

Consider `N#C[C@@H]1C[C@@H]2C[C@@H]2N1C(=O)[C@@H](N)C1CC2CCC(C1)N2C(=O)c1cccs1` (stereo partly drawn) [Compound 34, (1S,3S,5S)-2-{(2S)-2-Amino-2-[8-(thiophene-2-carbonyl)-8-aza-bicyclo[3.2.1]oct-3-yl]-exo-ethanoyl}-2-azabicyclo[3.1.0]hexane-3-carbonitrile trifluoroacetic acid salt], for which the IC50 stood at 12.9 nM.

As for `N#C[C@@H]1CCCN1C(=O)[C@@H](N)C1CC2CCC(C1)N2C(=O)c1ccncc1` (stereo partly drawn) [Compound 4, (2S)-1-{(2S)-2-Amino-2-[8-(pyridine-4-carbonyl)-8-aza-bicyclo[3.2.1]oct-3-yl]-exo-ethanoyl}-pyrrolidin-2-carbonitrile trifluoroacetic acid salt], the IC50 turned out to be 1.03 nM.

Turning to `N#C[C@@H]1C[C@@H]2C[C@@H]2N1C(=O)[C@@H](N)C1CC2CCC(C1)N2C(=O)c1ccccn1` (stereo partly drawn) [Compound 39, (1S,3S,5S)-2-{(2S)-2-Amino-2-[8-(pyridine-2-carbonyl)-8-aza-bicyclo[3.2.1]oct-3-yl]-exo-ethanoyl}-2-azabicyclo[3.1.0]hexane-3-carbonitrile trifluoroacetic acid salt], the IC50 stood at 11.7 nM.

With `N#C[C@@H]1C[C@@H]2C[C@@H]2N1C(=O)[C@@H](N)C1CC2CCC(C1)N2C(=O)c1cccnc1F` (stereo partly drawn) [Compound 32, (1S,3S,5S)-2-{(2S)-2-Amino-2-[8-(2-fluoropyridine-3-carbonyl)-8-aza-bicyclo[3.2.1]oct-3-yl]-exo-ethanoyl}-2-azabicyclo[3.1.0]hexane-3-carbonitrile trifluoroacetic acid salt], the 50% inhibitory concentration (IC50) came out at 6.84 nM.

On to `CS(=O)(=O)N1C2CCC1CC([C@H](N)C(=O)N1[C@H](C#N)C[C@@H]3C[C@@H]31)C2` (stereo partly drawn) [Compound 56, (1S,3S,5S)-2-{(2S)-2-Amino-2-[8-(methanesulfonyl)-8-aza-bicyclo[3.2.1]oct-3-yl]-exo-ethanoyl}-2-azabicyclo[3.1.0]hexane-3-carbonitrile trifluoroacetic acid salt], for which the IC50 stood at 4.14 nM.

With `N#C[C@@H]1CCCN1C(=O)[C@@H](N)C1CC2CCC(C1)N2` (stereo partly drawn) [Compound 8, (2S)-1-{(2S)-2-Amino-2-[8-aza-bicyclo[3.2.1]oct-3-yl]-exo-ethanoyl}-pyrrolidin-2-carbonitrile trifluoro acetic acid salt], the IC50 was determined as 6.84 nM.

Staying with this test, now noted: read-out: % inhibition at 1000 nM.
Take `N[C@H](C(=O)N1CCC[C@H]1C(=O)O)C1CC2CCC(C1)N2C(=O)c1ccc(C(F)(F)F)cc1` (stereo partly drawn) [Compound 11, (2S)-1-{(2S)-2-amino-2-[8-(4-trifluoromethyl-benzoyl)-8-aza-bicyclo[3.2.1]-oct-3-yl]-exo-ethanoyl}-pyrrolidin-2-carboxylic acid trifluoroacetic acid salt]: the inhibition at 1 µM turned out to be 29%.
